Data reported in ChEMBL document CHEMBL4765421, “Synthesis of natural 3'-Prenylchalconaringenin and biological evaluation of ameliorating non-alcoholic fatty liver disease and metabolic syndrome” (Eur J Med Chem, 2020).
Calls of active or inactive are those of the source. The calls are words filed in the database; no cut-off is given here.

Tests used:
HepG2 [1] = experiment: Cytotoxicity against human HepG2 cells assessed as reduction in cell viability at 10 to 20 uM by MTT assay; type: cell-based; details: hepg2, 20 µM, dose 10-20 µM
Mus musculus [2] = experiment: Hypolipidemic activity in tyloxapol-induced Kunming mouse model of hyperlipidemia assessed as reduction in serum ALT level at 100 mg/kg, po measured after 24 hrs; type: functional, organism-based
Mus musculus [3] = experiment: Hypolipidemic activity in tyloxapol-induced Kunming mouse model of hyperlipidemia assessed as reduction in serum AST level at 100 mg/kg, po measured after 24 hrs; type: functional, organism-based
Mus musculus [4] = experiment: Hypolipidemic activity in tyloxapol-induced Kunming mouse model of hyperlipidemia assessed as reduction in fatty liver phenotype at 100 mg/kg, po measured after 24 hrs; type: functional, organism-based
Mus musculus [5] = experiment: In vivo effect on PPAR signaling in tyloxapol-induced Kunming mouse model of hyperlipidemia assessed as increase in mTOR phosphorylation in white adipose tissue at 100 mg/kg, po measured after 24 hrs by Western blot analysis; type: functional, organism-based
Mus musculus [6] = experiment: Hypolipidemic activity in tyloxapol-induced Kunming mouse model of hyperlipidemia assessed as perirenal white adipose tissue index at 100 mg/kg, po measured after 24 hrs (reference value: 18.14 +/- 1.44); type: functional
Mus musculus [7] = experiment: Hypolipidemic activity in tyloxapol-induced Kunming mouse model of hyperlipidemia assessed as epididymis white adipose tissue index at 100 mg/kg, po measured after 24 hrs (reference value: 23.43 +/- 3.10); type: functional
Mus musculus [8] = experiment: In vivo induction of AMPK in tyloxapol-induced Kunming mouse model of hyperlipidemia assessed as increase in ACC phosphorylation in white adipose tissue at 100 mg/kg, po measured after 24 hrs by Western blot analysis; type: functional, organism-based
Mus musculus [9] = experiment: Hypolipidemic activity in tyloxapol-induced Kunming mouse model of hyperlipidemia assessed as liver index at 100 mg/kg, po measured after 24 hrs (reference value: 65.00 +/- 0.87); type: functional
Mus musculus [10] = experiment: Hypolipidemic activity in tyloxapol-induced Kunming mouse model of hyperlipidemia assessed as reduction in serum LDL level at 100 mg/kg, po measured after 24 hrs; type: functional, organism-based
Mus musculus [11] = experiment: Hypolipidemic activity in tyloxapol-induced Kunming mouse model of hyperlipidemia assessed as kidney index at 100 mg/kg, po measured after 24 hrs (reference value: 11.20 +/- 0.58); type: functional
Mus musculus [12] = experiment: In vivo effect on PPAR signaling in tyloxapol-induced Kunming mouse model of hyperlipidemia assessed as increase in PPARalpha expression in liver at 100 mg/kg, po measured after 24 hrs by Western blot analysis; type: functional, organism-based
Mus musculus [13] = experiment: In vivo induction of AMPK in tyloxapol-induced Kunming mouse model of hyperlipidemia assessed as increase in CPT-1A phosphorylation in white adipose tissue at 100 mg/kg, po measured after 24 hrs by Western blot analysis; type: functional, organism-based
Mus musculus [14] = experiment: Hypolipidemic activity in tyloxapol-induced Kunming mouse model of hyperlipidemia assessed as spleen index at 100 mg/kg, po measured after 24 hrs (reference value: 3.87 +/- 0.05); type: functional
Mus musculus [15] = experiment: In vivo induction of AMPK in tyloxapol-induced Kunming mouse model of hyperlipidemia assessed as increase in AKT phosphorylation in liver at 100 mg/kg, po measured after 24 hrs by Western blot analysis; type: functional, organism-based
Mus musculus [16] = experiment: In vivo induction of AMPK in tyloxapol-induced Kunming mouse model of hyperlipidemia assessed as decrease in FAS expression in white adipose tissue at 100 mg/kg, po measured after 24 hrs by Western blot analysis; type: functional, organism-based
Mus musculus [17] = experiment: Hypolipidemic activity in tyloxapol-induced Kunming mouse model of hyperlipidemia assessed as increase in appearance of hepatic lobules at 100 mg/kg, po measured after 24 hrs by Oil Red O staining based assay; type: functional, organism-based
Mus musculus [18] = experiment: In vivo induction of AMPK in tyloxapol-induced Kunming mouse model of hyperlipidemia assessed as decrease in SREBP1-C expression in liver at 100 mg/kg, po measured after 24 hrs by Western blot analysis; type: functional, organism-based
Mus musculus [19] = experiment: In vivo induction of AMPK in tyloxapol-induced Kunming mouse model of hyperlipidemia assessed as decrease in SREBP1-C expression in white adipose tissue at 100 mg/kg, po measured after 24 hrs by Western blot analysis; type: functional, organism-based
Mus musculus [20] = experiment: In vivo effect on PPAR signaling in tyloxapol-induced Kunming mouse model of hyperlipidemia assessed as increase in PPARalpha expression in white adipose tissue at 100 mg/kg, po measured after 24 hrs by Western blot analysis; type: functional, organism-based
Mus musculus [21] = experiment: In vivo effect on PPAR signaling in tyloxapol-induced Kunming mouse model of hyperlipidemia assessed as decrease in PPARgamma expression in white adipose tissue at 100 mg/kg, po measured after 24 hrs by Western blot analysis; type: functional, organism-based
Mus musculus [22] = experiment: In vivo induction of AMPK in tyloxapol-induced Kunming mouse model of hyperlipidemia assessed as increase in CPT-1A phosphorylation in liver at 100 mg/kg, po measured after 24 hrs by Western blot analysis; type: functional, organism-based
Mus musculus [23] = experiment: In vivo induction of AMPK in tyloxapol-induced Kunming mouse model of hyperlipidemia assessed as increase in AMPKalpha phosphorylation in white adipose tissue at 100 mg/kg, po measured after 24 hrs by Western blot analysis; type: functional, organism-based
Mus musculus [24] = experiment: In vivo induction of AMPK in tyloxapol-induced Kunming mouse model of hyperlipidemia assessed as increase in ACC phosphorylation in liver at 100 mg/kg, po measured after 24 hrs by Western blot analysis; type: functional, organism-based
Mus musculus [25] = experiment: In vivo effect on PPAR signaling in tyloxapol-induced Kunming mouse model of hyperlipidemia assessed as increase in PPARbeta expression in liver at 100 mg/kg, po measured after 24 hrs by Western blot analysis; type: functional, organism-based
Mus musculus [26] = experiment: Hypolipidemic activity in tyloxapol-induced Kunming mouse model of hyperlipidemia assessed as reduction in serum triglyceride level at 100 mg/kg, po measured after 24 hrs; type: functional, organism-based
HepG2 [27] = experiment: Activation of AMPK in oleic, palmitic, linoleic and arachidonic acid 29:47:18:6 (v/v)-induced human HepG2 cells assessed as increase in AMPK phosphorylation by Western blot; details: filed as activator
Mus musculus [28] = experiment: Hypolipidemic activity in tyloxapol-induced Kunming mouse model of hyperlipidemia assessed as reduction in serum total cholesterol level at 100 mg/kg, po measured after 24 hrs; type: functional, organism-based
Mus musculus [29] = experiment: In vivo effect on PPAR signaling in tyloxapol-induced Kunming mouse model of hyperlipidemia assessed as increase in mTOR phosphorylation in liver at 100 mg/kg, po measured after 24 hrs by Western blot analysis; type: functional, organism-based
Mus musculus [30] = experiment: In vivo induction of AMPK in tyloxapol-induced Kunming mouse model of hyperlipidemia assessed as decrease in FAS expression in liver at 100 mg/kg, po measured after 24 hrs by Western blot analysis; type: functional, organism-based
Mus musculus [31] = experiment: In vivo induction of AMPK in tyloxapol-induced Kunming mouse model of hyperlipidemia assessed as increase in AKT phosphorylation in white adipose tissue at 100 mg/kg, po measured after 24 hrs by Western blot analysis; type: functional, organism-based
Mus musculus [32] = experiment: Hypolipidemic activity in tyloxapol-induced Kunming mouse model of hyperlipidemia assessed as reduction in serum IL6 level at 100 mg/kg, po measured after 24 hrs; type: functional, organism-based
Mus musculus [33] = experiment: In vivo induction of AMPK in tyloxapol-induced Kunming mouse model of hyperlipidemia assessed as increase in AMPKalpha phosphorylation in liver at 100 mg/kg, po measured after 24 hrs by Western blot analysis; type: functional, organism-based
Mus musculus [34] = experiment: In vivo effect on PPAR signaling in tyloxapol-induced Kunming mouse model of hyperlipidemia assessed as decrease in PPARgamma expression in liver at 100 mg/kg, po measured after 24 hrs by Western blot analysis; type: functional, organism-based
Mus musculus [35] = experiment: In vivo effect on PPAR signaling in tyloxapol-induced Kunming mouse model of hyperlipidemia assessed as decrease in PPARbeta expression in white adipose tissue at 100 mg/kg, po measured after 24 hrs by Western blot analysis; type: functional, organism-based
HepG2 [36] = experiment: Activation of AMPK in oleic, palmitic, linoleic and arachidonic acid 29:47:18:6 (v/v)-induced human HepG2 cells assessed as increase in ACC phosphorylation by Western blot; details: filed as activator
Mus musculus [37] = experiment: Hypolipidemic activity in tyloxapol-induced Kunming mouse model of hyperlipidemia assessed as reduction in lipid level in liver at 100 mg/kg, po measured after 24 hrs by Oil Red O staining based assay; type: functional, organism-based
3T3-L1 [38] = experiment: Hypolipidemic activity in mouse 3T3-L1 preadipocytes assessed as reduction in lipid content at 10 uM by Oil Red O staining based assay relative to control; type: functional; set-up: scale not given: the % may be the effect or the level left
HepG2 [39] = experiment: Hypolipidemic activity in oleic, palmitic, linoleic and arachidonic acid 29:47:18:6 (v/v)-induced hyperlipidemia in human HepG2 cells assessed as reduction in lipid content at 10 uM by Oil Red O staining based assay relative to control; type: functional; set-up: scale not given: the % may be the effect or the level left
3T3-L1 [40] = experiment: Hypolipidemic activity in mouse 3T3-L1 mature adipocytes assessed as reduction in lipid content at 10 uM by Oil Red O staining based assay relative to control; type: functional; set-up: scale not given: the % may be the effect or the level left

O=C(/C=C/c1ccc(O)cc1)c1c(O)cc(O)cc1O [4,2',4',6'-TETRAHYDROXYCHALCONE]
Activity (HepG2 [1]): Non-Toxic

NC(=O)c1ncn([C@@H]2O[C@H](CO)[C@@H](O)[C@H]2O)c1N [ACADESINE]
Activity (Mus musculus [2]): Active
Activity (Mus musculus [3]): Active
Activity (Mus musculus [4]): Active
Activity (Mus musculus [5]): Active
Activity_index (Mus musculus [6]): 15.94
Activity_index (Mus musculus [7]): 20.09
Activity (Mus musculus [8]): Active
Activity_index (Mus musculus [9]): 57.41
Activity (Mus musculus [10]): Active
Activity_index (Mus musculus [11]): 8.64
Activity (Mus musculus [12]): Active
Activity (Mus musculus [13]): Active
Activity_index (Mus musculus [14]): 3.01
Activity (Mus musculus [15]): Active
Activity (Mus musculus [16]): Active
Activity (Mus musculus [17]): Active
Activity (Mus musculus [18]): Active
Activity (Mus musculus [19]): Active
Activity (Mus musculus [20]): Active
Activity (Mus musculus [21]): Active
Activity (Mus musculus [22]): Active
Activity (Mus musculus [23]): Active
Activity (Mus musculus [24]): Active
Activity (Mus musculus [25]): Active
Activity (Mus musculus [26]): Active
Activity (HepG2 [27]): Active
Activity (Mus musculus [28]): Active
Activity (Mus musculus [29]): Active
Activity (Mus musculus [30]): Active
Activity (Mus musculus [31]): Active
Activity (Mus musculus [32]): Active
Activity (Mus musculus [33]): Active
Activity (Mus musculus [34]): Active
Activity (Mus musculus [35]): Active
Activity (HepG2 [36]): Active
Activity (Mus musculus [37]): Active

CC(C)=CCc1c(O)cc(O)c(C(=O)/C=C/c2ccc(O)cc2)c1O [DEMETHYLXANTHOHUMOL]
Activity (HepG2 [1]): Non-Toxic

CC(C)OC(=O)C(C)(C)Oc1ccc(C(=O)c2ccc(Cl)cc2)cc1 [FENOFIBRATE]
Activity (Mus musculus [2]): Active
Activity (Mus musculus [3]): Active
Activity (Mus musculus [4]): Active
Activity (Mus musculus [5]): Active
Activity_index (Mus musculus [6]): 14.55
Activity_index (Mus musculus [7]): 15.43
Activity (Mus musculus [8]): Active
Activity_index (Mus musculus [9]): 56.59
Activity (Mus musculus [10]): Active
Activity_index (Mus musculus [11]): 9.65
Activity (Mus musculus [12]): Active
Activity (Mus musculus [13]): Active
Activity_index (Mus musculus [14]): 2.85
Activity (Mus musculus [15]): Active
Activity (Mus musculus [16]): Active
Activity (Mus musculus [17]): Active
Activity (Mus musculus [18]): Active
Activity (Mus musculus [19]): Active
Activity (Mus musculus [20]): Active
Activity (Mus musculus [21]): Active
Activity (Mus musculus [22]): Active
Activity (Mus musculus [23]): Active
Activity (Mus musculus [24]): Active
Activity (Mus musculus [25]): Active
Activity (Mus musculus [26]): Active
Activity (Mus musculus [28]): Active
Activity (Mus musculus [29]): Active
Activity (Mus musculus [30]): Active
Activity (Mus musculus [31]): Active
Activity (Mus musculus [32]): Active
Activity (Mus musculus [33]): Active
Activity (Mus musculus [34]): Active
Activity (Mus musculus [35]): Active
Activity (Mus musculus [37]): Active

CC[C@H](C)C(=O)O[C@H]1C[C@@H](C)C=C2C=C[C@H](C)[C@H](CC[C@@H]3C[C@@H](O)CC(=O)O3)[C@H]21 [LOVASTATIN]
Activity (3T3-L1 [38]): 67.14%
Activity (HepG2 [39]): 41.17%
Activity (3T3-L1 [40]): 47.2%
